This note sets out measurements from patent US11633459B2, “GIP derivatives and uses thereof” (priority 2018, dated 2023).

*1 amine or outer side, *2 acyl side, *3 side chain or, on linkers, in order; H or OH if unused. Where a SMILES comes first, the peptide text is derived from it. Where no end group is shown, it is not given here. Side-chain parts run from the residue outwards. [ ]: non-standard residue; d: D form. The star is where a group is joined. X1 = O=C(O)CCCCCCCCCCCCCCCCCCC(=O)NCC1CCC(C(=O)*)CC1; C18 diacid = O=C(O)CCCCCCCCCCCCCCCCC(=O)*; γGlu = O=C(O)[C@H](CCC(=O)[*:2])N[*:1]; Nle = CCCC[C@H](N)C(=O)O; AEEA = NCCOCCOCC(=O)O; Aib = CC(C)(N)C(=O)O

Usually EC50 stands for the concentration giving half of the maximal effect. Read a low EC50 as a more potent agent.

The test concerns the target T1, human GIP receptor (Homo sapiens, UniProt P48546).
T1 construct: expressed in transfected cells; host or cells: BHK cells (parent line BHKTS13), clone BHK CRE luc2P hGIPR clone #5
T1 sequence (P48546 22-466): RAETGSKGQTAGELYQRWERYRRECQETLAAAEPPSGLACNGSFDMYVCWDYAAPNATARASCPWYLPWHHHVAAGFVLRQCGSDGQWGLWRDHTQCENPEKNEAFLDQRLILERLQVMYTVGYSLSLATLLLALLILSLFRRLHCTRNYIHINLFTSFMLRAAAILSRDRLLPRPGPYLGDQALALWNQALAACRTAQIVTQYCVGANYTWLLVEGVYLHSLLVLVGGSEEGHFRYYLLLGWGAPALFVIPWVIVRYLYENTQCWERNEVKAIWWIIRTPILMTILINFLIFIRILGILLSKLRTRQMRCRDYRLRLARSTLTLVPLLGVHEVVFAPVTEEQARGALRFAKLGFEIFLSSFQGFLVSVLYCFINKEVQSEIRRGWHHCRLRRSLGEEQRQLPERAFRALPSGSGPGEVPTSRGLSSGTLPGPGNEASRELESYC
As to the kind of experiment: In vitro potency, CRE luciferase reporter gene assay, whole BHK cells expressing human GIP receptor. The format is cell-based. The note with it: 0.2% HSA. The procedure: In Vitro Potency (CRE Luciferase; Whole Cells)
The in vitro potency is the measure of human GIP, GLP-1 or glucagon receptor activation, respectively, in a whole cell assay.
In vitro potency was determined by measuring the response of the human GIP, GLP-1 or glucagon receptor in a reporter gene assay in individual cell lines. […] When the respective receptor is activated it results in the production of cAMP, which in turn results in the luciferase protein being expressed. When assay incubation is completed the luciferase substrate (luciferin) is added and the enzyme converts luciferin to oxyluciferin to produce bioluminescence. The luminescence is measured as the readout for the assay.
The cells were derived from a clone containing the CRE luciferase element and were established by further transfection with the respective receptor to obtain the current clone.
The cells were cultured at 5% CO2 in Cell Culture Medium. They were aliquoted and stored in liquid nitrogen. The cells were kept in passage and were seeded out the day before each assay.
The Assay Buffer consisted of 1% ovalbumin and 0.1% Pluronic F-68 in Assay Medium with the addition of human serum albumin at twice the indicated concentrations.
1) Cells were plated at 5000 cells/well and incubated overnight.
2) Cells were washed three times in PBS.
3) Assay Medium (50 μl aliquot) with or without serum albumin was added to each well in the assay plate.
4) Stocks of the test compounds and reference compounds were diluted to a concentration of 0.2 μM in Assay Buffer. […] 8) The cells were washed three times with PBS plus some liquid in each well. 9) A 100 μl aliquot of steadylite plus reagent was added to each well of the assay plate (reagent was light sensitive). 10) Each assay plate was covered with aluminum foil to protect it from light and shaken for 30 min at room temperature. 11) Each assay plate was read in a microtiter plate reader. Calculations and Results
The data from the microtiter plate reader was transferred to GraphPad Prism software. The software performs a non-linear regression (log(agonist) vs response).
A minimum of two replicates was measured for each sample. The reported values are averages of the replicates.
Background: Reporter assays use an easily measured gene product as a stand-in for the process of interest.
As to `CCCC[C@H](NC(=O)[C@H](C)NC(=O)[C@@H](NC(=O)[C@H](CO)NC(=O)[C@H](Cc1ccc(O)cc1)NC(=O)[C@H](CC(=O)O)NC(=O)[C@H](CO)NC(=O)[C@@H](NC(=O)[C@H](Cc1ccccc1)NC(=O)[C@@H](NC(=O)CNC(=O)[C@H](CCC(=O)O)NC(=O)C(C)(C)NC(=O)[C@@H](N)Cc1ccc(O)cc1)[C@@H](C)O)[C@@H](C)CC)[C@@H](C)CC)C(=O)N[C@@H](CC(=O)O)C(=O)N[C@@H](C)C(=O)N[C@H](C(=O)N[C@@H](CCCNC(=N)N)C(=O)N[C@@H](CCC(N)=O)C(=O)N[C@@H](CCC(N)=O)C(=O)N[C@@H](CC(=O)O)C(=O)N[C@@H](Cc1ccccc1)C(=O)N[C@H](C(=O)N[C@@H](CCCCNC(=O)CC[C@H](NC(=O)CC[C@H](NC(=O)CC[C@H](NC(=O)C1CCC(CNC(=O)CCCCCCCCCCCCCCCCCCC(=O)O)CC1)C(=O)O)C(=O)O)C(=O)O)C(=O)N[C@@H](Cc1c[nH]c2ccccc12)C(=O)N[C@@H](CC(C)C)C(=O)N[C@@H](CC(C)C)C(=O)N[C@@H](C)C(=O)N[C@@H](CCC(N)=O)C(=O)N[C@@H](CCCCN)C(=O)NCC(=O)O)C(C)C)[C@@H](C)CC` (stereo partly drawn) [Compound 14, N{Epsilon-24}-[(4S)-4-carboxy-4-[[(4S)-4-carboxy-4-[[(4S)-4-carboxy-4-[[4-[(19-carboxynonadecanoylamino)methyl]cyclohexanecarbonyl]amino]butanoyl]amino]-butanoyl]amino]butanoyl]-[Aib2,Nle14,Ala16,Arg18,Lys24]-hGIP(1-31)] (H-Y[Aib]EGTFISDYSIA[Nle]DAIRQQDFVK([γGlu-γGlu-γGlu-X1])WLLAQKG-OH), a half-maximal effect (EC50) was put at 0.266 nM.

`CCCC[C@H](NC(=O)[C@H](C)NC(=O)[C@@H](NC(=O)[C@H](CO)NC(=O)[C@H](Cc1ccc(O)cc1)NC(=O)[C@H](CC(=O)O)NC(=O)[C@H](CO)NC(=O)[C@@H](NC(=O)[C@H](Cc1ccccc1)NC(=O)[C@@H](NC(=O)CNC(=O)[C@H](CCC(=O)O)NC(=O)C(C)(C)NC(=O)[C@@H](N)Cc1ccc(O)cc1)[C@@H](C)O)[C@@H](C)CC)[C@@H](C)CC)C(=O)N[C@@H](CC(=O)O)C(=O)N[C@@H](CCCCN)C(=O)N[C@H](C(=O)N[C@@H](Cc1c[nH]cn1)C(=O)N[C@@H](CCC(N)=O)C(=O)N[C@@H](CCC(=O)O)C(=O)N[C@@H](CC(=O)O)C(=O)N[C@@H](Cc1ccccc1)C(=O)N[C@H](C(=O)N[C@@H](CCCCNC(=O)CC[C@H](NC(=O)CC[C@H](NC(=O)CC[C@H](NC(=O)CC[C@H](NC(=O)C1CCC(CNC(=O)CCCCCCCCCCCCCCCCCCC(=O)O)CC1)C(=O)O)C(=O)O)C(=O)O)C(=O)O)C(=O)N[C@@H](Cc1c[nH]c2ccccc12)C(=O)N[C@@H](CC(C)C)C(=O)N[C@@H](CC(C)C)C(=O)N[C@@H](C)C(=O)N[C@@H](CCC(N)=O)C(=O)N[C@@H](CCCCN)C(=O)NCC(=O)O)C(C)C)[C@@H](C)CC` (stereo partly drawn) [Compound 21, N{Epsilon-24}-[(4S)-4-carboxy-4-[[(4S)-4-carboxy-4-[[(4S)-4-carboxy-4-[[(4S)-4-carboxy-4-[[4-[(19-carboxynonadecanoylamino)methyl]cyclohexanecarbonyl]amino]butanoyl]-amino]butanoyl]amino]butanoyl]amino]butanoyl]-[Aib2,Nle14,Glu20,Lys24]-hGIP(1-31)] (H-Y[Aib]EGTFISDYSIA[Nle]DKIHQEDFVK([γGlu-γGlu-γGlu-γGlu-X1])WLLAQKG-OH) registered a concentration giving a half-maximal response (EC50) of 0.81 nM.

In the case of `CCCC[C@H](NC(=O)[C@H](C)NC(=O)[C@@H](NC(=O)[C@H](CO)NC(=O)[C@H](Cc1ccc(O)cc1)NC(=O)[C@H](CC(=O)O)NC(=O)[C@H](CO)NC(=O)[C@@H](NC(=O)[C@H](Cc1ccccc1)NC(=O)[C@@H](NC(=O)CNC(=O)[C@H](CCC(=O)O)NC(=O)C(C)(C)NC(=O)[C@@H](N)Cc1ccc(O)cc1)[C@@H](C)O)[C@@H](C)CC)[C@@H](C)CC)C(=O)N[C@@H](CC(=O)O)C(=O)N[C@@H](CCCCN)C(=O)N[C@H](C(=O)N[C@@H](CCCNC(=N)N)C(=O)N[C@@H](CCC(N)=O)C(=O)N[C@@H](CCC(N)=O)C(=O)N[C@@H](CC(=O)O)C(=O)N[C@@H](Cc1ccccc1)C(=O)N[C@H](C(=O)N[C@@H](CCCCNC(=O)COCCOCCNC(=O)COCCOCCNC(=O)CC[C@H](NC(=O)C1CCC(CNC(=O)CCCCCCCCCCCCCCCCCCC(=O)O)CC1)C(=O)O)C(=O)N[C@@H](Cc1c[nH]c2ccccc12)C(=O)N[C@@H](CC(C)C)C(=O)N[C@@H](CC(C)C)C(=O)N[C@@H](C)C(=O)N[C@@H](CCC(N)=O)C(=O)N[C@@H](CCCCN)C(=O)NCC(=O)N[C@@H](CCCCN)C(=O)N[C@@H](CCC(=O)O)C(=O)N[C@@H](CCC(=O)O)C(=O)N[C@@H](CC(=O)O)C(=O)N[C@@H](Cc1c[nH]c2ccccc12)C(=O)N[C@@H](CCCCN)C(=O)N[C@@H](Cc1c[nH]cn1)C(=O)N[C@@H](CC(N)=O)C(=O)N[C@H](C(=O)N[C@H](C(=O)N[C@@H](CCC(N)=O)C(=O)O)[C@@H](C)O)[C@@H](C)CC)C(C)C)[C@@H](C)CC` (stereo partly drawn) [Compound 41, N{Epsilon-24}-[2-[2-[2-[[2-[2-[2-[[(4S)-4-carboxy-4-[[4-[(19-carboxynonadecanoyl-amino)methyl]cyclohexanecarbonyl]amino]butanoyl]amino]ethoxy]ethoxy]acetyl]amino]ethoxy]ethoxy]acetyl]-[Aib2,Nle14,Arg18,Lys24,Glu33,Glu34]-hGIP], the 50% effective concentration (EC50) worked out at 0.014 nM.

In the case of `CCCC[C@H](NC(=O)[C@H](C)NC(=O)[C@@H](NC(=O)[C@H](CO)NC(=O)[C@H](Cc1ccc(O)cc1)NC(=O)[C@H](CC(=O)O)NC(=O)[C@H](CO)NC(=O)[C@@H](NC(=O)[C@H](Cc1ccccc1)NC(=O)[C@@H](NC(=O)CNC(=O)[C@H](CCC(=O)O)NC(=O)C(C)(C)NC(=O)[C@@H](N)Cc1ccc(O)cc1)[C@@H](C)O)[C@@H](C)CC)[C@@H](C)CC)C(=O)N[C@@H](CC(=O)O)C(=O)N[C@@H](CCCCN)C(=O)N[C@H](C(=O)N[C@@H](CCCNC(=N)N)C(=O)N[C@@H](CCC(N)=O)C(=O)N[C@@H](CCC(N)=O)C(=O)N[C@@H](CC(=O)O)C(=O)N[C@@H](Cc1ccccc1)C(=O)N[C@H](C(=O)N[C@@H](CCCCNC(=O)CC[C@H](NC(=O)CC[C@H](NC(=O)CC[C@H](NC(=O)C1CCC(CNC(=O)CCCCCCCCCCCCCCCCCCC(=O)O)CC1)C(=O)O)C(=O)O)C(=O)O)C(=O)N[C@@H](Cc1c[nH]c2ccccc12)C(=O)N[C@@H](CC(C)C)C(=O)N[C@@H](CC(C)C)C(=O)N[C@@H](C)C(=O)N[C@@H](CCC(N)=O)C(=O)N[C@@H](CCCCN)C(=O)NCC(=O)N[C@@H](CCCCN)C(=O)N[C@@H](CCC(=O)O)C(=O)N[C@@H](CCC(=O)O)C(=O)N[C@@H](CC(=O)O)C(=O)N[C@@H](Cc1c[nH]c2ccccc12)C(=O)N[C@@H](CCCCN)C(=O)N[C@@H](Cc1c[nH]cn1)C(=O)N[C@@H](CC(N)=O)C(=O)N[C@H](C(=O)N[C@H](C(=O)N[C@@H](CCC(N)=O)C(=O)O)[C@@H](C)O)[C@@H](C)CC)C(C)C)[C@@H](C)CC` (stereo partly drawn) [Compound 42, N{Epsilon-24}-[(4S)-4-carboxy-4-[[(4S)-4-carboxy-4-[[(4S)-4-carboxy-4-[[4-[(19-carboxynonadecanoylamino)methyl]cyclohexanecarbonyl]amino]butanoyl]amino]butanoyl]amino]butanoyl]-[Aib2,Nle14,Arg18,Lys24,Glu33,Glu34]-hGIP], the concentration for a half-maximal effect (EC50) was 0.022 nM.

In the case of “H-Y[Aib]EGTFISDYSIALDKIHQQDFVK([AEEA-AEEA-γGlu-C18 diacid])WLLAQKGKKNDWKHNITQ [Compound 45, N{Epsilon-24}-[2-[2-[2-[[2-[2-[2-[[(4S)-4-carboxy-4-(17-carboxyheptadecanoylamino)butanoyl]amino]ethoxy]ethoxy]acetyl]amino]ethoxy]ethoxy]acetyl]-[Aib2,Leu14,Lys24]-hGIP]”, the response was half-maximal at 0.056 nM (EC50).

In the case of “H-Y[Aib]EGTFISDYSIA[Nle]DKIHQQDFVK([γGlu-γGlu-γGlu-C18 diacid])WLLAQKGKENDWKHNITQ [Compound 33, N{Epsilon-24}-[(4S)-4-carboxy-4-[[(4S)-4-carboxy-4-[[(4S)-4-carboxy-4-(17-carboxyheptadecanoylamino)butanoyl]amino]butanoyl]amino]butanoyl]-[Aib2,Nle14,Lys24,Glu33]-hGIP]”, a half-maximal effect (EC50) was put at 0.0213 nM.
